Source: patent US20150315211A1, “SMALL MOLECULES FOR THE MODULATION OF MCL-1 AND METHODS OF MODULATING CELL DEATH, CELL DIVISION, CELL DIFFERENTIATION AND METHODS OF TREATING DISORDERS” (priority 2010, published 2015)

What follows are compounds tested on MCL-1ΔNΔC (assay: High-throughput competitive FP binding screen, FITC-MCL-1 SAHB/MCL-1ΔNΔC interaction). Settings: selectivity for MCL-1ΔNΔC over BCL-XLΔC targeting (BCL-XL % Bound minus MCL-1 % Bound).

Spec Values	Structure (SMILES)
46.24	COc1ccc(-c2nc3scc(CCNC(=O)/C=C/c4ccco4)n3n2)cc1
45.91	O=C(/C=C/c1ccco1)Nc1cccc(-c2nc3ccccc3o2)c1
45.66	O=C(/C=C/c1ccco1)NCc1ccccc1
45.66	CN(Cc1ccc(-c2ccc(Br)cc2)o1)C(=O)c1ccc(S(N)(=O)=O)cc1
45.38	Cc1ccc(CN(C)C(=O)c2ccccc2OCCOc2ccccc2)o1
70.38	CC1CCN(C2=NN3C(=N)C(Cc4ccc(SCc5ccco5)o4)C(=O)N=C3S2)CC1 (stereo not drawn)
67.61	Cc1ccccc1OCC1=NN2C(=N)/C(=C\c3cccn3-c3cccc(Cl)c3)C(=O)N=C2S1
54.65	Cc1ccccc1OCC1=NN2C(=N)/C(=C\c3ccc(SCc4ccco4)o3)C(=O)N=C2S1
49.33	CS(=O)(=O)C1=NN2C(=N)/C(=C\c3ccc(-c4ccc(Cl)cc4)o3)C(=O)N=C2S1
74.73	CCCCSC1=C(C#N)C(=O)NC(c2ccc(OC)cc2)S1 (stereo not drawn)
73.94	CCCCSC1=C(C#N)C(=O)NC(c2ccco2)S1 (stereo not drawn)
69.65	CCSC1=C(C#N)C(=O)NC(c2ccc(O)cc2)S1 (stereo not drawn)
49.2	CCSC1=C(C#N)C(=O)NC(c2ccc(N(C)C)cc2)S1 (stereo not drawn)
97.76	CCCOC(=O)c1cc(-c2ccc(/C=C3\C(=O)NC(=O)C(C#N)=C3C)o2)ccc1Cl
90.31	CC1=C(C#N)C(=O)N(CCc2ccccc2)C(=O)/C1=C/c1ccc(-c2ccc(S(N)(=O)=O)cc2)o1
82.88	CC1=C(C#N)C(=O)N(C)C(=O)/C1=C/c1ccc(-c2cccc(Cl)c2C)o1
82.57	CCCOC(=O)c1cc(-c2ccc(/C=C3\C(=O)N(CCCO)C(=O)C(C#N)=C3C)o2)ccc1Cl
81.6	CCCN1C(=O)C(C#N)=C(C)/C(=C\c2ccc(-c3ccc(Br)cc3)o2)C1=O
77.49	CC1=C(C#N)C(=O)N(CC(C)O)C(=O)/C1=C/c1ccc(-c2ccc(C(=O)OC(C)C)cc2)o1 (stereo not drawn)
74.32	CC1=C(C#N)C(=O)N(CC(C)O)C(=O)/C1=C/c1ccc(-c2ccc(Cl)cc2)o1 (stereo not drawn)
57.81	C=CCN1C(=O)C(C#N)=C(C)/C(=C\c2ccc(-c3cccc(C(=O)O)c3)o2)C1=O
53.97	CC1=C(C#N)C(=O)N(CCc2ccccc2)C(=O)/C1=C/c1ccc(-c2ccc3c(c2)COC3=O)o1
52.9	CC1=C(C#N)C(O)=NC(=O)/C1=C/c1ccc(-c2cccc(C(=O)O)c2)o1

Each compound was assayed against BCL-XLΔC (Homo sapiens, UniProt Q07817) (assay: High-throughput competitive FP binding screen, FITC-BAD BH3/BCL-XLΔC interaction). Settings: FITC-BAD BH3/BCL-XLΔC interaction pair, competitive FP screen.
Sequence of BCL-XLΔC (Q07817 1-212 limits assumed, stated change not applied): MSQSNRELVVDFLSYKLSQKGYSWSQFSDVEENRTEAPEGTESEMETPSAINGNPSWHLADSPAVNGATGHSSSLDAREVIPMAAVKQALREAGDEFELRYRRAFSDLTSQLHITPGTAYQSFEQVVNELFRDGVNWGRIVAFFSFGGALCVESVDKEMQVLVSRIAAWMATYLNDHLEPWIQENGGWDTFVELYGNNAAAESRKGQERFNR

BCL-XL % Bound	Structure (SMILES)
86.75%	COc1ccc(-c2nc3scc(CCNC(=O)/C=C/c4ccco4)n3n2)cc1
112%	O=C(/C=C/c1ccco1)Nc1cccc(-c2nc3ccccc3o2)c1
101.8%	O=C(/C=C/c1ccco1)NCc1ccccc1
115.2%	CN(Cc1ccc(-c2ccc(Br)cc2)o1)C(=O)c1ccc(S(N)(=O)=O)cc1
114.2%	Cc1ccc(CN(C)C(=O)c2ccccc2OCCOc2ccccc2)o1
84.68%	CC1CCN(C2=NN3C(=N)C(Cc4ccc(SCc5ccco5)o4)C(=O)N=C3S2)CC1 (stereo not drawn)
92.89%	Cc1ccccc1OCC1=NN2C(=N)/C(=C\c3cccn3-c3cccc(Cl)c3)C(=O)N=C2S1
73.83%	Cc1ccccc1OCC1=NN2C(=N)/C(=C\c3ccc(SCc4ccco4)o3)C(=O)N=C2S1
82.61%	CS(=O)(=O)C1=NN2C(=N)/C(=C\c3ccc(-c4ccc(Cl)cc4)o3)C(=O)N=C2S1
99.33%	CCCCSC1=C(C#N)C(=O)NC(c2ccc(OC)cc2)S1 (stereo not drawn)
92.91%	CCCCSC1=C(C#N)C(=O)NC(c2ccco2)S1 (stereo not drawn)
84.82%	CCSC1=C(C#N)C(=O)NC(c2ccc(O)cc2)S1 (stereo not drawn)
79.68%	CCSC1=C(C#N)C(=O)NC(c2ccc(N(C)C)cc2)S1 (stereo not drawn)
87.16%	CCCOC(=O)c1cc(-c2ccc(/C=C3\C(=O)NC(=O)C(C#N)=C3C)o2)ccc1Cl
97.35%	CC1=C(C#N)C(=O)N(CCc2ccccc2)C(=O)/C1=C/c1ccc(-c2ccc(S(N)(=O)=O)cc2)o1
86.24%	CC1=C(C#N)C(=O)N(C)C(=O)/C1=C/c1ccc(-c2cccc(Cl)c2C)o1
75.5%	CCCOC(=O)c1cc(-c2ccc(/C=C3\C(=O)N(CCCO)C(=O)C(C#N)=C3C)o2)ccc1Cl
102.2%	CCCN1C(=O)C(C#N)=C(C)/C(=C\c2ccc(-c3ccc(Br)cc3)o2)C1=O
107.7%	CC1=C(C#N)C(=O)N(CC(C)O)C(=O)/C1=C/c1ccc(-c2ccc(C(=O)OC(C)C)cc2)o1 (stereo not drawn)
89.37%	CC1=C(C#N)C(=O)N(CC(C)O)C(=O)/C1=C/c1ccc(-c2ccc(Cl)cc2)o1 (stereo not drawn)
89.24%	C=CCN1C(=O)C(C#N)=C(C)/C(=C\c2ccc(-c3cccc(C(=O)O)c3)o2)C1=O
84.79%	CC1=C(C#N)C(=O)N(CCc2ccccc2)C(=O)/C1=C/c1ccc(-c2ccc3c(c2)COC3=O)o1
89.7%	CC1=C(C#N)C(O)=NC(=O)/C1=C/c1ccc(-c2cccc(C(=O)O)c2)o1

What follows are compounds tested against MCL-1ΔNΔC (Homo sapiens, UniProt Q07820) (assay: High-throughput competitive FP binding screen, FITC-MCL-1 SAHB/MCL-1ΔNΔC interaction). Settings: FITC-MCL-1 SAHB/MCL-1ΔNΔC interaction pair, competitive FP screen.
Parameters: the C-terminal alpha-helix was deleted from each of these constructs; GST (N, cleaved yes); made in house

Sequence of MCL-1ΔNΔC (Homo sapiens, UniProt Q07820) (Q07820 172-320 limits assumed, stated change not applied): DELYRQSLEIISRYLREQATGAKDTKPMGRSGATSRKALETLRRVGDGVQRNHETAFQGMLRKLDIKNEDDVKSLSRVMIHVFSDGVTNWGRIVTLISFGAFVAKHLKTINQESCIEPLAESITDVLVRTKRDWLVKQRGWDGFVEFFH

MCL-1% Bound	Structure (SMILES)
40.51%	COc1ccc(-c2nc3scc(CCNC(=O)/C=C/c4ccco4)n3n2)cc1
66.09%	O=C(/C=C/c1ccco1)Nc1cccc(-c2nc3ccccc3o2)c1
56.1%	O=C(/C=C/c1ccco1)NCc1ccccc1
69.53%	CN(Cc1ccc(-c2ccc(Br)cc2)o1)C(=O)c1ccc(S(N)(=O)=O)cc1
68.8%	Cc1ccc(CN(C)C(=O)c2ccccc2OCCOc2ccccc2)o1
14.3%	CC1CCN(C2=NN3C(=N)C(Cc4ccc(SCc5ccco5)o4)C(=O)N=C3S2)CC1 (stereo not drawn)
25.28%	Cc1ccccc1OCC1=NN2C(=N)/C(=C\c3cccn3-c3cccc(Cl)c3)C(=O)N=C2S1
19.18%	Cc1ccccc1OCC1=NN2C(=N)/C(=C\c3ccc(SCc4ccco4)o3)C(=O)N=C2S1
33.28%	CS(=O)(=O)C1=NN2C(=N)/C(=C\c3ccc(-c4ccc(Cl)cc4)o3)C(=O)N=C2S1
24.59%	CCCCSC1=C(C#N)C(=O)NC(c2ccc(OC)cc2)S1 (stereo not drawn)
18.96%	CCCCSC1=C(C#N)C(=O)NC(c2ccco2)S1 (stereo not drawn)
15.17%	CCSC1=C(C#N)C(=O)NC(c2ccc(O)cc2)S1 (stereo not drawn)
30.49%	CCSC1=C(C#N)C(=O)NC(c2ccc(N(C)C)cc2)S1 (stereo not drawn)
−10.6%	CCCOC(=O)c1cc(-c2ccc(/C=C3\C(=O)NC(=O)C(C#N)=C3C)o2)ccc1Cl
7.037%	CC1=C(C#N)C(=O)N(CCc2ccccc2)C(=O)/C1=C/c1ccc(-c2ccc(S(N)(=O)=O)cc2)o1
3.369%	CC1=C(C#N)C(=O)N(C)C(=O)/C1=C/c1ccc(-c2cccc(Cl)c2C)o1
−7.072%	CCCOC(=O)c1cc(-c2ccc(/C=C3\C(=O)N(CCCO)C(=O)C(C#N)=C3C)o2)ccc1Cl
20.59%	CCCN1C(=O)C(C#N)=C(C)/C(=C\c2ccc(-c3ccc(Br)cc3)o2)C1=O
30.2%	CC1=C(C#N)C(=O)N(CC(C)O)C(=O)/C1=C/c1ccc(-c2ccc(C(=O)OC(C)C)cc2)o1 (stereo not drawn)
15.04%	CC1=C(C#N)C(=O)N(CC(C)O)C(=O)/C1=C/c1ccc(-c2ccc(Cl)cc2)o1 (stereo not drawn)
31.43%	C=CCN1C(=O)C(C#N)=C(C)/C(=C\c2ccc(-c3cccc(C(=O)O)c3)o2)C1=O
30.81%	CC1=C(C#N)C(=O)N(CCc2ccccc2)C(=O)/C1=C/c1ccc(-c2ccc3c(c2)COC3=O)o1
36.81%	CC1=C(C#N)C(O)=NC(=O)/C1=C/c1ccc(-c2cccc(C(=O)O)c2)o1
